The source of these data is patent publication US20160303095A1, “METHODS OF TREATING HEPATITIS B VIRUS” (Gilead Sciences, Inc., priority 2015, published 2016).

One test concerns the target T1, KDM4A (Homo sapiens, UniProt O75164).
T1 construct: host or cells: Sf9 cells
T1 sequence (O75164 1-1064): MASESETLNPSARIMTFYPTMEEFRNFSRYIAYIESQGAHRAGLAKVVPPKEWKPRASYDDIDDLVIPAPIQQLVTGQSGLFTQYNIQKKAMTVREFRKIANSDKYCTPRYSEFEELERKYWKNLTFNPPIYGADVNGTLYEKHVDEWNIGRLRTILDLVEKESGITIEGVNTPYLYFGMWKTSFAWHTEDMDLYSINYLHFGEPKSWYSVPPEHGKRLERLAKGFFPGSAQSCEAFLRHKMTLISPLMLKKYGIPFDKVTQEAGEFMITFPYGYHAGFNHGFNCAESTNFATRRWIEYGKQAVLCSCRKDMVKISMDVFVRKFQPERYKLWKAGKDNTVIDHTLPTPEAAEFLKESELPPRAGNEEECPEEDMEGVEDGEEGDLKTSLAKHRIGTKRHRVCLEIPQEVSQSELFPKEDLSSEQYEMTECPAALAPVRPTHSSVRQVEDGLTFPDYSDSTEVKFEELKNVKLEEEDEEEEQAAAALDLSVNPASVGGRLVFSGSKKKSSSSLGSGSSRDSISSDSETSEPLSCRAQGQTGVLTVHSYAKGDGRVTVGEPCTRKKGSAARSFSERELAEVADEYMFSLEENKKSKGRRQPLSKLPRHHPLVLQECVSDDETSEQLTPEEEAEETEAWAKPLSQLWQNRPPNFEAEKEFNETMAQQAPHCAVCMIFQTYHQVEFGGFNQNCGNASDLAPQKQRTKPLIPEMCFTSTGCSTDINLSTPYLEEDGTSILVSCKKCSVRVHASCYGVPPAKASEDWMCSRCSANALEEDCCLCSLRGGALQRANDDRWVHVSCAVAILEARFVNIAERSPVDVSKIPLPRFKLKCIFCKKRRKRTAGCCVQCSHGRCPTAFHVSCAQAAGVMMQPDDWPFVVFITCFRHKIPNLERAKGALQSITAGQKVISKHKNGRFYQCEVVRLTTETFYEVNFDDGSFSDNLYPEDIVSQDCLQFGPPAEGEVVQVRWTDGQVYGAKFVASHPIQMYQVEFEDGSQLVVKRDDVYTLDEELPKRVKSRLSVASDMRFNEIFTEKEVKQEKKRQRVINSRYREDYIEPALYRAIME
Nature of the test: Biochemical KDM inhibition assay (LANCE), KDM4A. To be noted: read-out: Biochemical IC50 KDM 4A. For orientation: In TR-FRET formats the signal depends on donor and acceptor labels being close together.

The next test has as its target T2, KDM3A (Homo sapiens, UniProt Q9Y4C1).
T2 construct: host or cells: Sf9 cells
T2 sequence (Q9Y4C1 1-1321): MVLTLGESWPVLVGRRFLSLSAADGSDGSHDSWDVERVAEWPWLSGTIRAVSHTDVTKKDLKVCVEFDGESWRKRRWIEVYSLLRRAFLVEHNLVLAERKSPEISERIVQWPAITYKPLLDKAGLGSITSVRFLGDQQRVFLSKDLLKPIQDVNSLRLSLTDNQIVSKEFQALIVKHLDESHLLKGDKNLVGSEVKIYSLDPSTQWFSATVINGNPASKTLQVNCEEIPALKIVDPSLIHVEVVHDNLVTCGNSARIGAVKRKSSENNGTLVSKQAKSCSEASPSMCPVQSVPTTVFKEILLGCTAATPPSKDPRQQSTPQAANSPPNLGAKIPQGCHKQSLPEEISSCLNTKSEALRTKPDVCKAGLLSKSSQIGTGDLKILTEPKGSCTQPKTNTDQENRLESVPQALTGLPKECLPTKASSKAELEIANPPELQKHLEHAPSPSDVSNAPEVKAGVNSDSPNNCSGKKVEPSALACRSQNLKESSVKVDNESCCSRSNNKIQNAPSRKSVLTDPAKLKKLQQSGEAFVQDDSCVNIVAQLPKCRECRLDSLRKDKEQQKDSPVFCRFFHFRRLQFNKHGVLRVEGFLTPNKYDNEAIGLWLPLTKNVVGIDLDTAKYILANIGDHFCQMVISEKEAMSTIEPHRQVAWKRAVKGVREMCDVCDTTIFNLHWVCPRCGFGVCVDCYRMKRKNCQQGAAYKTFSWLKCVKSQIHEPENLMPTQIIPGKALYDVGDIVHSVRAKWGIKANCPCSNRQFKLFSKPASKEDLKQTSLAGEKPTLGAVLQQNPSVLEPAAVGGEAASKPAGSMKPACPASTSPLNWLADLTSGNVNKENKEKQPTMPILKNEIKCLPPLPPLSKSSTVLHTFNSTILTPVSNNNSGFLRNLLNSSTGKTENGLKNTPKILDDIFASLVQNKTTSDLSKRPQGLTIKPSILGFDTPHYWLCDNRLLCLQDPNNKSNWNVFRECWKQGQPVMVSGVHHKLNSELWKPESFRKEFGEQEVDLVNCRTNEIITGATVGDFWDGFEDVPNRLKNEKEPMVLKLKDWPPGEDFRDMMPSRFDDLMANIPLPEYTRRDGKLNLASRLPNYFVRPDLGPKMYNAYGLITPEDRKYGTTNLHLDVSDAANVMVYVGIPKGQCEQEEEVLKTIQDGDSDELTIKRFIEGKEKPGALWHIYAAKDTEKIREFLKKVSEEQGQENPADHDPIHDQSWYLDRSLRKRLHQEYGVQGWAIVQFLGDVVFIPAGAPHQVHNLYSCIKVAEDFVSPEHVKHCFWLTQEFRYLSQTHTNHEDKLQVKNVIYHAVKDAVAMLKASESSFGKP
Put plainly: Biochemical KDM inhibition assay (LANCE), KDM3A. To be noted: read-out: Biochemical IC50 KDM 3A.

A further test addresses T3, KDM6A (Homo sapiens, UniProt O15550).
T3 construct: host or cells: Sf9 cells
Nature of the test: Biochemical KDM inhibition assay (LANCE), KDM6A. To be noted: read-out: Biochemical IC50 KDM 6A. As to the method:
Representative compounds were characterized for their inhibition of KDM5 using biotinylated histone substrates. Inhibition was measured in vitro (CEREP Poitier, Le Bois l'Evêque, France) following experimental conditions described in Table 2. Briefly, the test compound, reference compound or water (control) was mixed with about 2-20 ng of recombinant, Human enzymes expressed in Sf9 cells in a buffer containing 45 mM Hepes/Tris (pH 7), 5 μM FAS, 100 μM ascorbic acid, 10 μM 2-oxoglutarate, 0.01% Tween 20 and 0.01% BSA. Thereafter, the reaction was initiated by adding the biotin-labeled substrate, and the mixture was incubated for 10-30 min at room temperature. For basal control measurements, the enzyme was omitted from the reaction mixture. Following incubation the reaction was stopped by adding 1 mM EDTA. After 5 min, the anti-methyl histone antibody labeled with europium chelate and the Ulight streptavidine (Perkin Elmer Waltham, Mass.) were added. After 60 min more, the fluorescence transfer was measured at λex=320 nm and λem=620 and λem=665 nm using a microplate reader (Envision, Perkin Elmer) (LANCE). The enzyme activity was determined by dividing the signal measured at λem=665 nm by that measured at 620 nm (ratio).

SMILES strings stand for the structures.

T3 sequence (O15550 whole entry): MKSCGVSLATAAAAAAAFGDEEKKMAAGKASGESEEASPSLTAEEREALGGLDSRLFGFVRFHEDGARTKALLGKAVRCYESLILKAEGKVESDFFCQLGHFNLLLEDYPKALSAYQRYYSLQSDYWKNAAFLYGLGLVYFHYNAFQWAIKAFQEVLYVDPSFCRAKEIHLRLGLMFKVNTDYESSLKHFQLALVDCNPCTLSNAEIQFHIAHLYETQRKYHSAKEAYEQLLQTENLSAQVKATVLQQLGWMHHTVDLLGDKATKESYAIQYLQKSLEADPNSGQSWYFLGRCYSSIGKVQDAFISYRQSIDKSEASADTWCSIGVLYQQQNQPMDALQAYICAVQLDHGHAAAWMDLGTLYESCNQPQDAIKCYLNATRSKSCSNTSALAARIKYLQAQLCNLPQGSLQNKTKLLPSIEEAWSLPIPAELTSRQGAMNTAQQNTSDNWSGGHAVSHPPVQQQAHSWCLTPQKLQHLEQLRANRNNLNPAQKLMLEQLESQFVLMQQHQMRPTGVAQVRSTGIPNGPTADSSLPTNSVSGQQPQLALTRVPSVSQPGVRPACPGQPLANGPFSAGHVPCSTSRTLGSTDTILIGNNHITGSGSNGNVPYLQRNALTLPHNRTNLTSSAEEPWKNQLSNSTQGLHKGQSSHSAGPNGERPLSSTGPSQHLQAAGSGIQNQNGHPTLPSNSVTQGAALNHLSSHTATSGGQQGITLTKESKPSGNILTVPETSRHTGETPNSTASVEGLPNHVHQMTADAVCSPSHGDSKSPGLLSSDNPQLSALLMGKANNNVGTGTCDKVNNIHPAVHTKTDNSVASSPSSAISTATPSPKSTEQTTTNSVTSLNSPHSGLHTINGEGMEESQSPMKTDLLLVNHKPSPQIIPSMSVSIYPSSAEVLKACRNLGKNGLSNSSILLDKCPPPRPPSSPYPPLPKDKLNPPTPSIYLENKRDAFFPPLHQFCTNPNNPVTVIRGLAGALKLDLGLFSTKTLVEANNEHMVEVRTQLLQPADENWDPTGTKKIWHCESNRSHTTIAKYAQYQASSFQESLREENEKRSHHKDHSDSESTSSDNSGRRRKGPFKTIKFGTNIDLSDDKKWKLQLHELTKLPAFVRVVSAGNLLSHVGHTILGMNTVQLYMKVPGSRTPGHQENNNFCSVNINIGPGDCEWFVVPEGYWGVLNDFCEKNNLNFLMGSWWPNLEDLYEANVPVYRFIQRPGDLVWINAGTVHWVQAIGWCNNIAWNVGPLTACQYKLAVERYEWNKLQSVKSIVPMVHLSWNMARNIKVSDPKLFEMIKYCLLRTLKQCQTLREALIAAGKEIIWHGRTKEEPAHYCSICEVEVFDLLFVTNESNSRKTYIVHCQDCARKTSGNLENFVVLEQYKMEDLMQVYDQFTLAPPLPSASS

Usually IC50 stands for the midpoint of a concentration-inhibition curve. For the compound `Nc1c(C(=O)O)ccnc1C(=O)O` [Example 7, reference compound], the IC50 stood at 0.49 µM at KDM4A, 1.2 µM on KDM3A and 0.93 µM at KDM6A.

As for `CCN(CCN(C)C)C(=O)CNCc1cc(C(=O)O)ccn1` [Example 9], the IC50 at KDM4A is 0.35 µM; at KDM3A, 1.1 µM; on KDM6A it was 1.3 µM.

Regarding `Cc1cc(Cl)ccc1COc1ccnn1-c1cc(C(=O)O)ccn1` [Example 11], the IC50 at KDM4A was found to be 1 µM; at KDM3A, 7.5 µM; on KDM6A it was 0.074 µM.

Take `O=C(O)c1ccncc1Nc1nn(CCN2CCC(F)(F)CC2)c2ccc(F)cc12` [Example 13]: the IC50 is 1.1 µM at KDM4A and 0.14 µM at KDM6A.

For `N#CNC(=O)c1ccncc1Nc1nn(CCN2CCC(F)(F)CC2)c2ccc(F)cc12` [Example 14], the IC50 at KDM3A is 3.9 µM.

As for `CCN(CC)CCCCNCc1cc(C(=O)O)ccn1` [Example 18], the IC50 at KDM4A was 0.39 µM; at KDM3A it was 5.4 µM; at KDM6A, 5.5 µM.
